Laboratory results published in publication PMC9329436, “Optimization of the 4-anilinoquin(az)oline scaffold as epidermal growth factor receptor (EGFR) inhibitors for chordoma utilizing a toxicology profiling assay platform” (Scientific Reports, 2022).
Where two headings read alike, the source gives them in different places.

How the values were obtained:
Assay type in all cases: biochemical
[1] = target: 320 wild-type protein kinases (Homo sapiens, UniProt P19784); conditions: singlicate
Text: (§1) Table S4. Profiling of two compounds at two concentrations against 320 wild-type protein kinases; singlicate measurement; Residual activities (% of control).

[2] = target: 320 wild-type protein kinases (Homo sapiens, UniProt P05129); conditions: PKC-gamma, singlicate
Text: as §1

[3] = target: T1, 320 wild-type protein kinases (Homo sapiens, UniProt Q9NR20); conditions: singlicate
T1 sequence (Q9NR20 1-520): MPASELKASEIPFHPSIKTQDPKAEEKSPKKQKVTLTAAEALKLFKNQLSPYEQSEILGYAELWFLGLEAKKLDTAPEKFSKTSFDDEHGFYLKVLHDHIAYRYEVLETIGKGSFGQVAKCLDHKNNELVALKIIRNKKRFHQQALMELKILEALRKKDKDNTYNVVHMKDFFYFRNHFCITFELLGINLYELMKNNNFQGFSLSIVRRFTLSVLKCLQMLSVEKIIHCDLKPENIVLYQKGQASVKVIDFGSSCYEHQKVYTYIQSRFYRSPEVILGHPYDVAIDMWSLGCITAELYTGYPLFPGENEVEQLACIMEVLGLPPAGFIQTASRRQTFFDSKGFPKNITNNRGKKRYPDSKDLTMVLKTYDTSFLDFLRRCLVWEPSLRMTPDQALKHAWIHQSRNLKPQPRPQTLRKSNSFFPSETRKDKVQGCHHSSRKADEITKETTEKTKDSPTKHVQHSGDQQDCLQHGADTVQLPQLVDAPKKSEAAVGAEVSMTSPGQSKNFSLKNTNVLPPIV
Text: as §1

[4] = target: 320 wild-type protein kinases (Homo sapiens, UniProt P24941); conditions: singlicate
Text: as §1

[5] = target: 320 wild-type protein kinases (Homo sapiens, UniProt Q13705); conditions: ACV-R2B, singlicate
Text: as §1

[6] = target: 320 wild-type protein kinases (Homo sapiens, UniProt Q13554); conditions: CAMK2B, singlicate
Text: as §1

[7] = target: T2, 320 wild-type protein kinases (Homo sapiens, UniProt Q13188); conditions: singlicate
T2 sequence (Q13188 1-491): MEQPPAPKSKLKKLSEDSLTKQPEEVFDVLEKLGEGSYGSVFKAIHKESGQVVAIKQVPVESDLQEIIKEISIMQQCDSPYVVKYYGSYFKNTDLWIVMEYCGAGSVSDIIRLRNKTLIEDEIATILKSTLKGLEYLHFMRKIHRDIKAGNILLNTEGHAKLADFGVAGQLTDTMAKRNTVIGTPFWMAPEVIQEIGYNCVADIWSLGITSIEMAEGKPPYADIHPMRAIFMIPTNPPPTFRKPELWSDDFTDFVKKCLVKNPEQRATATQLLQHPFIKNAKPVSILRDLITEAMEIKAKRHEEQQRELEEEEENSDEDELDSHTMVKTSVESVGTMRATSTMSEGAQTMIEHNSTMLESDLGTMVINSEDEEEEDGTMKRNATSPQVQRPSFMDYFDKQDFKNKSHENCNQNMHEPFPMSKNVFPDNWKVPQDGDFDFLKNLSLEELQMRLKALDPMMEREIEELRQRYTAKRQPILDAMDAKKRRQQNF
Text: as §1

[8] = target: 320 wild-type protein kinases (Homo sapiens, UniProt P16591); conditions: FER, singlicate
Text: as §1

[9] = target: T3, 320 wild-type protein kinases (Homo sapiens, UniProt P52333); conditions: singlicate
T3 sequence (P52333 1-1124): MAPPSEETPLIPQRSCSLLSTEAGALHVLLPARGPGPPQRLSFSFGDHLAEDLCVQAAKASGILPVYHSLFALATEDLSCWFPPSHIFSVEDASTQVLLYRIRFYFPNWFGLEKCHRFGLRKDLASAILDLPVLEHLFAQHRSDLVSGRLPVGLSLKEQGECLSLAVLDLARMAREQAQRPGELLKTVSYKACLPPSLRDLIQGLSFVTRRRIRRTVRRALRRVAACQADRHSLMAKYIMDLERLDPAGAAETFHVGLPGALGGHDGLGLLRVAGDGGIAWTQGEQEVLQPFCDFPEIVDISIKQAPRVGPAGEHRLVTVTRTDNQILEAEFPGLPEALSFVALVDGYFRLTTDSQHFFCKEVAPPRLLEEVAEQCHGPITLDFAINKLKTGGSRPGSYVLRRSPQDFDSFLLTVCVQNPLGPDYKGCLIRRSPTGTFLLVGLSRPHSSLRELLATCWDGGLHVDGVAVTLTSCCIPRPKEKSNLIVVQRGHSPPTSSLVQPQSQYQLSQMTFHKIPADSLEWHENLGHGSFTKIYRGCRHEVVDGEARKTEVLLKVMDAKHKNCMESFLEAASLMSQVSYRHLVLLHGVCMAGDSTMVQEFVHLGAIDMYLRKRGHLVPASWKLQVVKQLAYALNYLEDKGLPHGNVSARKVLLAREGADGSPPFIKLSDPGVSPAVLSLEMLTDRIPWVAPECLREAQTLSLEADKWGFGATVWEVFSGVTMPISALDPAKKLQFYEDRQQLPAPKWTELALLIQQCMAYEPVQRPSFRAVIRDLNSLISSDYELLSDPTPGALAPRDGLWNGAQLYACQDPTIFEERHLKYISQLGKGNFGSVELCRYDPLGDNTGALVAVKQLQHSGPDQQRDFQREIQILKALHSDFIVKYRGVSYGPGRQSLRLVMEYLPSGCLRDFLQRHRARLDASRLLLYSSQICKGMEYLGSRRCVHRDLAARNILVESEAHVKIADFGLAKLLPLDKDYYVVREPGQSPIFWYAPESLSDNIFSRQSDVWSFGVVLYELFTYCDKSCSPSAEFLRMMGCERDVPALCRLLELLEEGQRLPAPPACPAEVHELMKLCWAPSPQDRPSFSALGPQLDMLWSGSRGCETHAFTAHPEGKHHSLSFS
Text: as §1

320 wild-type protein kinases (Homo sapiens, UniProt Q13705), sequence (Q13705 19-512): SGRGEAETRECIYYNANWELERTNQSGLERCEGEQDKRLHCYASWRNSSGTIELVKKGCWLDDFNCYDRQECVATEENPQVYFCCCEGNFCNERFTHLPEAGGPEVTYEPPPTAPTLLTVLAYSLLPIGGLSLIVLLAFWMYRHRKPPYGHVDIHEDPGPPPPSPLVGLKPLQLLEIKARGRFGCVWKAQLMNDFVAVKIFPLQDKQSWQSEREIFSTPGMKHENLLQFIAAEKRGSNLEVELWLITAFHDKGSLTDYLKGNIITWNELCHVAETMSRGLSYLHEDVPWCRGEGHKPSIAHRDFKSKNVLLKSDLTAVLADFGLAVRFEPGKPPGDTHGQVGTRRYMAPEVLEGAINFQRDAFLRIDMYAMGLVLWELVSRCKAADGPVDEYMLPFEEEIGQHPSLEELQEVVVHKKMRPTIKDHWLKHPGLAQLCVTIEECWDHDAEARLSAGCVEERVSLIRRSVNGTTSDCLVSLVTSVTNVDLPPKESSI
320 wild-type protein kinases (Homo sapiens, UniProt P19784), sequence (P19784 whole entry): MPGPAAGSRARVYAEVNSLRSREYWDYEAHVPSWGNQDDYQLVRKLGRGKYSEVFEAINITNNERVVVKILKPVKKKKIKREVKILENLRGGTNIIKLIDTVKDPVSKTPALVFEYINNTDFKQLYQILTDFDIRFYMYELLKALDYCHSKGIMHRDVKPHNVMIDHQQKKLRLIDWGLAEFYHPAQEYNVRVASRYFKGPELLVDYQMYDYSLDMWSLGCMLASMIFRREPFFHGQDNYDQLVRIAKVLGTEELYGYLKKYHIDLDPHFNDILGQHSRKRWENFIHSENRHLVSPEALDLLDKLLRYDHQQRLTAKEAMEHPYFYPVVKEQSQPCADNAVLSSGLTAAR
320 wild-type protein kinases (Homo sapiens, UniProt Q13554), sequence (Q13554 whole entry): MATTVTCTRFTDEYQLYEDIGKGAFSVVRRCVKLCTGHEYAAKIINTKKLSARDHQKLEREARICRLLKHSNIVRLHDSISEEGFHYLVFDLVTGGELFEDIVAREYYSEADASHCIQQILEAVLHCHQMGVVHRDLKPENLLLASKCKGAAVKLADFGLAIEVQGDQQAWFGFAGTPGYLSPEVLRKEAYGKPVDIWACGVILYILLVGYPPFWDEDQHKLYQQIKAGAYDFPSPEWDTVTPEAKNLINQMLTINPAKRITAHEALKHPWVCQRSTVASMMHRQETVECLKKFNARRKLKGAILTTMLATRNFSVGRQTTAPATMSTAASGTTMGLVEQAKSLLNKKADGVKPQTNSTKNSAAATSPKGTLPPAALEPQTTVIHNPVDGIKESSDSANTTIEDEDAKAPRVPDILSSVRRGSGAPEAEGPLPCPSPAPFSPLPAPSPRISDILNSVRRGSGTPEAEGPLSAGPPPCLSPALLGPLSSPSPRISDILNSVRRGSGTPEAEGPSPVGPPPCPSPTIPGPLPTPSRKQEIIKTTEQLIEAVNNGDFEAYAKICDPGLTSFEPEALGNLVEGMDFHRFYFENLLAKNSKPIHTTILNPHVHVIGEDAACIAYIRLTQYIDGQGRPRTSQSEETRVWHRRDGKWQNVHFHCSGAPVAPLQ
320 wild-type protein kinases (Homo sapiens, UniProt P16591), sequence (P16591 whole entry): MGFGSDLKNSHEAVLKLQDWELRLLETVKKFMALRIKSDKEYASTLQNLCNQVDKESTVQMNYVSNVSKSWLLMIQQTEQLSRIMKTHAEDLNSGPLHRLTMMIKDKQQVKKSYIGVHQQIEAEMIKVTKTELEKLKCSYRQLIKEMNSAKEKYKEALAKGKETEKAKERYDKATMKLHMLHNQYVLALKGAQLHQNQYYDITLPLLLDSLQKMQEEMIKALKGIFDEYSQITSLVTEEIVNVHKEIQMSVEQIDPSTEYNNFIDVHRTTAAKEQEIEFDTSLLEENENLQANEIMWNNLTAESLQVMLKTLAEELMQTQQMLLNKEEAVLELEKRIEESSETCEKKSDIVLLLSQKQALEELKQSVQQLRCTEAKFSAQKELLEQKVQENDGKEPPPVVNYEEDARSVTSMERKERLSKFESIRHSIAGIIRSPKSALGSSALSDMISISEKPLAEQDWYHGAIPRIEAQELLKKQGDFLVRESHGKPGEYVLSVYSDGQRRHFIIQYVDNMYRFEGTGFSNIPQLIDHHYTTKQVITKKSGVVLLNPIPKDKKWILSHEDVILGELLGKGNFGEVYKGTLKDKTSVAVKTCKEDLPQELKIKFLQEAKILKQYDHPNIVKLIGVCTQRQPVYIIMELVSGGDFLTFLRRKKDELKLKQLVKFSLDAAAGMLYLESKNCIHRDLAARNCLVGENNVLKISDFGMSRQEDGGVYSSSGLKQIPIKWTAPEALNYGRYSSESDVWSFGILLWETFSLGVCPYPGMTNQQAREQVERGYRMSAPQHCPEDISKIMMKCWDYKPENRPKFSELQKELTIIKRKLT

C#Cc1cc(Nc2ncnc3cc(I)ccc23)ccc1Cl [Compound 41] was tested, and the Residual activity ([1]; CK2-alpha2, 1.0E-06 M) was 115 % of control, the Residual activity ([1]; CK2-alpha2, 1.0E-07 M) was 115 % of control and the Residual activity ([2]; 1.0E-06 M) was 89 % of control. For the same compound, the Residual activity ([2]; 1.0E-07 M) was 99 % of control, the Residual activity ([3]; DYRK4, 1.0E-06 M) was 96 % of control and the Residual activity ([3]; DYRK4, 1.0E-07 M) was 99 % of control. For the same compound, the Residual activity ([4]; CDK2/CycA2, 1.0E-06 M) was 90 % of control, the Residual activity ([4]; CDK2/CycA2, 1.0E-07 M) was 88 % of control and the Residual activity ([4]; CDK2/CycE1, 1.0E-06 M) was 76 % of control. The Residual activity ([4]; CDK2/CycE1, 1.0E-07 M) was 97 % of control, the Residual activity ([5]; 1.0E-06 M) was 84 % of control and the Residual activity ([5]; 1.0E-07 M) was 91 % of control. For the same compound, the Residual activity ([6]; 1.0E-06 M) was 86 % of control, the Residual activity ([6]; 1.0E-07 M) was 84 % of control and the Residual activity ([7]; MST2, 1.0E-06 M) was 102 % of control. The Residual activity ([7]; MST2, 1.0E-07 M) was 113 % of control, the Residual activity ([8]; 1.0E-06 M) was 110 % of control and the Residual activity ([8]; 1.0E-07 M) was 113 % of control. For the same compound, the Residual activity ([9]; JAK3, 1.0E-06 M) was 78 % of control and the Residual activity ([9]; JAK3, 1.0E-07 M) was 108 % of control.
C#Cc1cc(Nc2ncnc3cc(OC)c(OC)cc23)ccc1Cl [Compound 45] was tested, and the Residual activity ([1]; CK2-alpha2, 1.0E-06 M) was 111 % of control, the Residual activity ([1]; CK2-alpha2, 1.0E-07 M) was 118 % of control and the Residual activity ([2]; 1.0E-06 M) was 88 % of control. For the same compound, the Residual activity ([2]; 1.0E-07 M) was 87 % of control, the Residual activity ([3]; DYRK4, 1.0E-06 M) was 97 % of control and the Residual activity ([3]; DYRK4, 1.0E-07 M) was 116 % of control. For the same compound, the Residual activity ([4]; CDK2/CycA2, 1.0E-06 M) was 97 % of control, the Residual activity ([4]; CDK2/CycA2, 1.0E-07 M) was 95 % of control and the Residual activity ([4]; CDK2/CycE1, 1.0E-06 M) was 86 % of control. The Residual activity ([4]; CDK2/CycE1, 1.0E-07 M) was 91 % of control, the Residual activity ([5]; 1.0E-06 M) was 85 % of control and the Residual activity ([5]; 1.0E-07 M) was 83 % of control. The Residual activity ([6]; 1.0E-06 M) was 103 % of control, the Residual activity ([6]; 1.0E-07 M) was 81 % of control and the Residual activity ([7]; MST2, 1.0E-06 M) was 102 % of control. For the same compound, the Residual activity ([7]; MST2, 1.0E-07 M) was 103 % of control, the Residual activity ([8]; 1.0E-06 M) was 93 % of control and the Residual activity ([8]; 1.0E-07 M) was 115 % of control. The Residual activity ([9]; JAK3, 1.0E-06 M) was 85 % of control and the Residual activity ([9]; JAK3, 1.0E-07 M) was 112 % of control.
